The assay deals with IRAK4 (Homo sapiens (Human), UniProt Q9NWZ3). As to the kind of experiment: IRAK4 kinase activity, IMAP fluorescence polarization assay. Particulars: 100 μM ATP. The class given is biochemical. A digest of the protocol:
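GST-tagged IRAK4 at 0.5 nM phosphorylates 100 nM fluorescent peptide substrate with 100 μM ATP in pH 7.2 Tris buffer containing MgCl2, DTT and Tween 20, 30 min at 25 °C. Reaction stopped with IMAP binding reagent; phosphorylation read as increased fluorescence polarization.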
For orientation: Polarisation of emitted light reports the rotation of a fluorescent probe.

[1] abbreviates: 0.5 nM GST tagged IRAK4, read-out: IRAK4 IC50.

Counter-ions that a name gives are not always drawn. Like-named read-outs stand apart in the source and are kept apart here.

The values that follow come from patent US9221809B2 (MERCK SHARP & DOHME CORP., priority 2011, dated 2015).

Chain of IRAK4 (Q9NWZ3 whole entry): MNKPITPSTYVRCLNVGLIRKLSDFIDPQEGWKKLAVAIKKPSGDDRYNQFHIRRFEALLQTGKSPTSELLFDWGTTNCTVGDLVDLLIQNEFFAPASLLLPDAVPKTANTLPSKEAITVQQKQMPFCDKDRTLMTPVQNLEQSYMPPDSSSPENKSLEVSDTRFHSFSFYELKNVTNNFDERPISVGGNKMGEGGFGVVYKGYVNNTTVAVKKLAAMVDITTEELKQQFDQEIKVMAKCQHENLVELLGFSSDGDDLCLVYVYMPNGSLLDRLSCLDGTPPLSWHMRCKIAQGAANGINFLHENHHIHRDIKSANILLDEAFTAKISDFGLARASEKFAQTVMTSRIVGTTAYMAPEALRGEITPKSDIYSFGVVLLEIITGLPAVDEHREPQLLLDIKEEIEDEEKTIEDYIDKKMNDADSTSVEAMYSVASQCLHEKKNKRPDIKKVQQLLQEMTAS

As usually defined, the IC50 is the concentration that gives 50% inhibition. Take `O=c1[nH]c(N2CCOCC2)nc(NCCN2CCC(O)CC2)c1-c1nc2ccccc2s1` [Example 258, 5-(1,3-benzothiazol-2-yl)-6-[[2-(4-hydroxypiperidin-1-yl)ethyl]amino]-2-(morpholino-4-yl)-3,4-dihydropyrimidin-4-one]: the IC50 (read-out: IC50) is 0.78 µM.
For `O=c1[nH]c(N2CCOCC2)nc(N[C@@H]2CCCNC2)c1-c1nc(-c2ccc(F)cc2)cs1` [Example 98, (R)-5-(4-(4-Fluorophenyl)thiazol-2-yl)-2-morpholino-6-(piperidin-3-ylamino)pyrimidin-4(3H)-one.HCl], the IC50 under setting [1] came to 0.024 µM.
As to `O=c1[nH]c(N2CCOCC2)nc(N[C@@H]2CCCNC2)c1-c1ccccn1` [Example 199], the IC50 (read-out: IRAK4 IC50) is 4.76 µM.
For `CC(C)(C)c1cccc(-c2c(N[C@@H]3CCCNC3)nc(N3CCOCC3)[nH]c2=O)n1` [Example 197], the IC50 (read-out: IRAK4 IC50) is 0.537 µM.
Still for that read-out and setting: the figure for `O=c1[nH]c(N2CCN(c3ccc4c(c3)OCO4)CC2)nc(N[C@@H]2CCCNC2)c1-c1nc2ccccc2s1` [Example 155, (R)-2-(4-(benzo[d][1,3]dioxol-5-yl)piperazin-1-yl)-5-(benzo[d]thiazol-2-yl)-6-(piperidin-3-ylamino)pyrimidin-4(3H)-one] is 0.011 µM; for `O=c1[nH]c(N2CCOCC2)nc(N[C@@H]2CCCNC2)c1-c1nc(-c2ccc(C(F)(F)F)cn2)cs1` [Example 206] it is 2.4 µM.
With `CC1(O)CCN(c2nc(N[C@@H]3CCCNC3)c(-c3ccc4ccccc4n3)c(=O)[nH]2)C1` (stereo partly drawn) [Example 181, 2-(3-hydroxy-3-methylpyrrolidin-1-yl)-6-((R)-piperidin-3-ylamino)-5-(quinolin-2-yl)pyrimidin-4(3H)-one], the IC50 (read-out: IRAK4 IC50) was 0.031 µM.
Take `O=c1[nH]c(N2CCOCC2)nc(NC2CNC2)c1-c1ccc2ccccc2n1` [Example 275, 6-[(azetidin-3-yl)amino]-2-(morpholin-4-yl)-5-(quinolin-2-yl)-3,4-dihydropyrimidin-4-one]: the IC50 (read-out: IC50) was found to be 0.15 µM.
As to `O=c1[nH]c(C2CCN(c3cnccn3)CC2)nc(N[C@@H]2CCCNC2)c1-c1nc2ccccc2s1` [Example 243, (R)-5-(benzo[d]thiazol-2-yl)-6-(piperidin-3-ylamino)-2-(1-(pyrazin-2-yl)piperidin-4-yl)pyrimidin-4(3H)-one], the IC50 (read-out: IC50) was found to be 0.18 µM.
Consider `O=c1[nH]c(N2CCOC(CO)C2)nc(N[C@@H]2CCCNC2)c1-c1nc2ccccc2s1` (stereo partly drawn) [Example 285, 5-(1,3-benzothiazol-2-yl)-2-[2-(hydroxymethyl)morpholin-4-yl]-6-[[(3R)-piperidin-3-yl]amino]-3,4-dihydropyrimidin-4-one], for which the IC50 (read-out: IC50) amounted to 0.043 µM.
As to `O=c1[nH]c(NC2CCNC2)nc(N[C@@H]2C[C@H](CO)[C@@H](O)[C@H]2O)c1-c1nc2ccccc2s1` (stereo partly drawn) [Example 37, 5-(Benzo[d]thiazol-2-yl)-6-(((1R,2S,3R,4R)-2,3-dihydroxy-4-(hydroxymethyl)cyclopentyl)amino)-2-(pyrrolidin-3-ylamino)pyrimidin-4(3H)-one.HCl], under setting [1], the IC50 turned out to be 2 µM.
On to `Cc1cc(C2CCN(c3nc(N[C@@H]4CCCNC4)c(-c4ccc5ccccc5n4)c(=O)[nH]3)CC2)[nH]n1` [Example 192, (R)-2-(4-(3-methyl-1H-pyrazol-5-yl)piperidin-1-yl)-6-(piperidin-3-ylamino)-5-(quinolin-2-yl)pyrimidin-4(3H)-one], for which, under “read-out: IRAK4 IC50”, the IC50 was 0.066 µM.
With `C[C@@H]1C[C@@H](Nc2nc(N3CCOCC3)[nH]c(=O)c2-c2nc3ccccc3s2)CN1` [Example 210, 5-(benzo[d]thiazol-2-yl)-6-(((3R,5R)-5-methylpyrrolidin-3-yl)amino)-2-morpholinopyrimidin-4(3H)-one], the IC50 (read-out: IC50) is 0.15 µM.
Consider `O=C1C[C@@H](Nc2nc(N[C@@H]3CCCNC3)c(-c3nc4ccccc4s3)c(=O)[nH]2)Cc2ccccc2N1` [Example 303, (S)-4-(5-(benzo[d]thiazol-2-yl)-6-oxo-4-((R)-piperidin-3-ylamino)-1,6-dihydropyrimidin-2-ylamino)-4,5-dihydro-1H-benzo[b]azepin-2(3H)-one], for which, under “read-out: IC50”, the half-inhibitory concentration (IC50) came to 5.9 µM.
Consider `O=c1[nH]c(N2CCOCC2)nc(N[C@@H]2CCCNC2)c1-c1csc(-n2ccnc2)n1` [Example 219, (R)-5-(2-(1H-imidazol-1-yl)thiazol-4-yl)-2-morpholino-6-(piperidin-3-ylamino)pyrimidin-4(3H)-one], for which, where the note is “read-out: IC50”, the IC50 was 0.004 µM.
As to `O=c1[nH]c(N2CCC(c3ccccn3)CC2)nc(N[C@@H]2C[C@H](CO)[C@@H](O)[C@H]2O)c1-c1nc2ccccc2s1` [Example 78, 5-(benzo[d]thiazol-2-yl)-6-((1R,2S,3R,4R)-2,3-dihydroxy-4-(hydroxymethyl)cyclopentylamino)-2-(4-(pyridin-2-yl)piperidin-1-yl)pyrimidin-4(3H)-one], the IC50 (unit inferred, read-out: IRAK4 IC50) came to 0.036 µM.
For `O=c1[nH]c(N2CC3CC2CN3)nc(N[C@@H]2CCCNC2)c1-c1ccc2ccccc2n1` (stereo partly drawn) [Example 194, 2-(2,5-diazabicyclo[2.2.1]heptan-2-yl)-6-((R)-piperidin-3-ylamino)-5-(quinolin-2-yl)pyrimidin-4(3H)-one], the IC50 (read-out: IRAK4 IC50) turned out to be 0.169 µM.
Turning to `O=c1[nH]c(N2CCC[C@H]2CF)nc(N[C@@H]2CCCNC2)c1-c1ccc2ccccc2n1` [Example 183, 2-((S)-2-(fluoromethyl)pyrrolidin-1-yl)-6-((R)-piperidin-3-ylamino)-5-(quinolin-2-yl)pyrimidin-4(3H)-one], the IC50 (read-out: IRAK4 IC50) is 0.085 µM.
With `O=c1[nH]c(N2CCOCC2)nc(NCC2CCNCC2)c1-c1nc2ccccc2s1` [Example 271, 5-(1,3-benzothiazol-2-yl)-2-(morpholin-4-yl)-6-[(piperidin-4-ylmethyl)amino]-3,4-dihydropyrimidin-4-one; trifluoroacetic acid], the IC50 (read-out: IC50) worked out at 0.33 µM.
With `N[C@H]1CCCC[C@H]1Nc1cccc2sc(-c3c(N[C@@H]4CCCNC4)nc(N4CCOCC4)[nH]c3=O)nc12` (racemic) [Example 353, 5-[4-[(cis, rac)-(2-aminocyclohexyl)amino]-1,3-benzothiazol-2-yl]-2-(morpholin-4-yl)-6-[[(3R)-piperidin-3-yl]amino]-3,4-dihydropyrimidin-4-one], the IC50 under setting [1] was determined as 0.024 µM.
As to `CC(C)(O)C1CN(c2nc(N[C@@H]3CCCNC3)c(-c3ccc4ccccc4n3)c(=O)[nH]2)C1` [Example 172, (R)-2-(3-(2-hydroxypropan-2-yl)azetidin-1-yl)-6-(piperidin-3-ylamino)-5-(quinolin-2-yl)pyrimidin-4(3H)-one], for the setting “read-out: IRAK4 IC50”, the IC50 came to 0.042 µM.
Regarding `C[C@H]1CC[C@@H](Nc2nc(N3CCOCC3)[nH]c(=O)c2-c2nc3ccccc3s2)CN1` (racemic) [Example 123, 5-(benzo[d]thiazol-2-yl)-6((6-methylpiperidin-3-yl)amino)-2-morpholinopyrimidin-4(3H)-one.HCl], the IC50 under setting [1] was 0.847 µM.
As to `O=c1[nH]c(N2CCOCC2)nc(N[C@@H]2CCCNC2)c1-c1ncc(F)cn1` [Example 220, (R)-5-fluoro-2′-morpholino-6′-(piperidin-3-ylamino)-[2,5′-bipyrimidin]-4′(3′H)-one], the IC50 under setting [1] amounted to 0.22 µM.
Consider `O=c1[nH]c(N2CCOCC2)nc(N[C@@H]2CCCNC2)c1-c1nc(-c2cccc(F)c2)cs1` [Example 204], for which, where the note is “read-out: IRAK4 IC50”, the IC50 is 0.04 µM.
Turning to `O=c1[nH]c(N2CCOCC2CO)nc(N[C@@H]2CCCNC2)c1-c1nc2ccccc2s1` (stereo partly drawn) [Example 125, 5-(benzo[d]thiazol-2-yl)-2-(3-(hydroxymethyl)morpholino)-6-((R)-piperidin-3-ylamino)pyrimidin-4(3H)-one], the IC50 (read-out: IRAK4 IC50) is 0.864 µM.
Turning to `CC(C)[C@H]1C[C@@H](Nc2nc(N3CCC(c4cncnc4)CC3)[nH]c(=O)c2-c2nc3ccccc3s2)[C@H](O)[C@@H]1O` [Example 44, 5-(Benzo[d]thiazol-2-yl)-6-((1R,2S,3R,4R)-2,3-dihydroxy-4-isopropylcyclopentylamino)-2-(4-(pyrimidin-5-yl)piperidin-1-yl)pyrimidin-4(3H)-one.HCl], the IC50 under setting [1] was found to be 0.023 µM.
For the molecule `Cc1cc2sc(-c3c(N[C@@H]4C[C@H](CO)[C@@H](O)[C@H]4O)nc(N4CCOCC4)[nH]c3=O)nc2c(C)n1` [Example 57, 6-(((1R,2S,3R,4R)-2,3-Dihydroxy-4-(hydroxymethyl)cyclopentyl)amino)-5-(4,6-dimethylthiazolo[4,5-c]pyridin-2-yl)-2-morpholinopyrimidin-4(3H)-one.HCl], the IC50 under setting [1] amounted to 0.923 µM.
On the same count and under the same terms, under `N#Cc1ccc2sc(-c3c(N[C@@H]4CCCNC4)nc(N4CCOCC4)[nH]c3=O)nc2c1` [Example 348, 2-[2-(morpholin-4-yl)-6-oxo-4-[[(3R)-piperidin-3-yl]amino]-1,6-dihydropyrimidin-5-yl]-1,3-benzothiazole-5-carbonitrile] stands 0.005 µM; under `CC(C)[C@H]1C[C@@H](Nc2nc[nH]c(=O)c2-c2nc3ccccc3s2)[C@H](O)[C@@H]1O` [Example 43, 5-(Benzo[d]thiazol-2-yl)-6-((1R,2S,3R,4R)-2,3-dihydroxy-4-isopropylcyclopentylamino)pyrimidin-4(3H)-one.HCl], 0.85 µM.
Consider `CN(C)c1nc(N[C@@H]2CCCNC2)c(-c2nc3ccccc3s2)c(=O)[nH]1` [Example 289, (R)-5-(benzo[d]thiazol-2-yl)-2-(dimethylamino)-6-(piperidin-3-ylamino)pyrimidin-4(3H)-one], for which the IC50 (read-out: IC50) is 0.074 µM.
Regarding `O=c1[nH]c(N2CCCCC2)nc(N[C@@H]2CCCNC2)c1-c1nc2ccccc2s1` [Example 309, 5-(1,3-benzothiazol-2-yl)-2-(piperidin-1-yl)-6-[[(3R)-piperidin-3-yl]amino]-3,4-dihydropyrimidin-4-one hydrochloride], the IC50 (read-out: IC50) is 0.071 µM.
Take `O=c1[nH]c(N2CCOCC2)nc(NCC(O)CO)c1-c1nc2ccccc2s1` (centres unmarked) [Example 246, 5-(1,3-benzothiazol-2-yl)-6-[(2,3-dihydroxypropyl)amino]-2-(morpholin-4-yl)-3,4-dihydropyrimidin-4-one]: the IC50 under setting [1] was 8.1 µM.
